Test results as given in US20090136553A1, “TRIGGERABLY DISSOLVABLE HOLLOW FIBERS FOR CONTROLLED DELIVERY” (priority 2007, published 2009).

What was measured:
[1] = tested on: surgically created aneurysm; conditions: bFGF collagen gel in fiber lumen, three weeks; cited from earlier work
[2] = tested on: endothelial cell migration and vessel formation in Matrigel plug; assay: In vivo murine Matrigel plug assay; parameters: species or system C57BL/6 mice; conditions: 10 μL daily of 100 μg/mL VEGF or 1800 μM S1P via fiber, 7 days post-implantation
Protocol: In vivo Assay. Growth factor reduced Matrigel™ (500 μL) was injected into the subcutaneous space on the dorsal side of C57BL/6 mice on both the left and right sides. A 12 G needle was used to thread cellulose hollow fibers through the skin and Matrigel™ plugs. Hollow fibers were fixed in place using tissue glue and an Elizabethan collar was used to prevent mice from extracting the hollow fiber. On the day of implantation and every day for the next 6 days, hollow fibers on the left side were injected with sterile saline and hollow fibers on the right side were injected with 10 μL of 100 μg/mL VEGF or 1800 μM S1P (see Table 8 for schedule).
Seven days post-implantation, implants were extracted, fixed and analyzed for endothelial cell migration and vessel formation. […] CD31 staining of Matrigel™ plug explants confirms that cells that have migrated into the Matrigel™ plugs are in fact endothelial cells (FIGS. 21E-H). Metamorph® was used to measure the % area of each image that consisted of endothelial cell staining in order to quantify endothelial cell migration.

| Substance | fibrous tissue formation in aneurysm [1] | blood filled vessels (H&E) [2] |
| --- | --- | --- |
| basic fibroblast growth factor [bFGF] | remained functional as it was able to guide the aneurysm to create fibrous tissue |  |
| vascular endothelial growth factor [VEGF] |  | blood filled vessels |
